Source: the supplement of paper PMC11616607

Columns and labels:
Assay in all cases: drug sensitivity score (DSS) from 5-point dose-response viability curve (DSS (area-under-curve based score)); higher = more sensitive (stronger growth inhibition or killing); extreme values may be limits of the assay
Conditions in all cases: exposure time: 72 h; concentration range: 5 concentrations over 10,000-fold range
Ovsaho = test system: Ovsaho
Method in brief: (§1)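 Ovarian cancer and normal ovarian cell lines were tested in 384-well plates, with drugs dispensed acoustically (Echo 550) in DMSO or water at five concentrations covering a 10,000-fold range. After 1,500 cells per well were added, plates were incubated for 3 days at 37°C and 5% CO2, and viability was read by CellTiter-Glo luminescence on a PHERAstar FS. Breeze software gave a drug sensitivity score for each cell line and drug, where a higher score means greater sensitivity. A value of zero means no response.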

JHOS2 = test system: JHOS2
Method in brief: as §1

Kuramochi = test system: Kuramochi
Method in brief: as §1

CAOV3 = test system: CAOV3
Method in brief: as §1

OV90 = test system: OV90
Method in brief: as §1

OVCAR5 = test system: OVCAR5
Method in brief: as §1

COV362 = test system: COV362
Method in brief: as §1

HOSE1C = test system: HOSE1C
Method in brief: as §1

HOSE2C = test system: HOSE2C
Method in brief: as §1

OVCAR4 = test system: OVCAR4
Method in brief: as §1

COV318 = test system: COV318
Method in brief: as §1

OVCAR8 = test system: OVCAR8
Method in brief: as §1

Cn1nccc1Nc1nccc(-c2ccn([C@H](CO)c3ccc(Cl)c(F)c3)c(=O)c2)n1 [Ravoxertinib]
drug sensitivity score (Ovsaho): 4.7 | drug sensitivity score (JHOS2): 3.7 | drug sensitivity score (Kuramochi): 4.8 | drug sensitivity score (CAOV3): 6 | drug sensitivity score (OV90): 13.6 | drug sensitivity score (OVCAR5): 8.8 | drug sensitivity score (COV362): 0.2 | drug sensitivity score (HOSE1C): 0 | drug sensitivity score (HOSE2C): 0 | drug sensitivity score (OVCAR4): 0.8 | drug sensitivity score (COV318): 0 | drug sensitivity score (OVCAR8): 6.9

CNC(=O)c1cc(Oc2ccc(NC(=O)Nc3ccc(Cl)c(C(F)(F)F)c3)c(F)c2)ccn1 [Regorafenib]
drug sensitivity score (Ovsaho): 2 | drug sensitivity score (JHOS2): 1.3 | drug sensitivity score (Kuramochi): 1.2 | drug sensitivity score (CAOV3): 2 | drug sensitivity score (OV90): 7.9 | drug sensitivity score (OVCAR5): 4.4 | drug sensitivity score (COV362): 0.6 | drug sensitivity score (HOSE1C): 1.6 | drug sensitivity score (HOSE2C): 2.7 | drug sensitivity score (OVCAR4): 1.6 | drug sensitivity score (COV318): 0.6 | drug sensitivity score (OVCAR8): 4.1

CCOC(=O)C1=CCCC[C@H]1S(=O)(=O)Nc1ccc(F)cc1Cl [Resatorvid]
drug sensitivity score (Ovsaho): 0 | drug sensitivity score (JHOS2): 0 | drug sensitivity score (Kuramochi): 0 | drug sensitivity score (CAOV3): 0 | drug sensitivity score (OV90): 0 | drug sensitivity score (OVCAR5): 0 | drug sensitivity score (COV362): 0 | drug sensitivity score (HOSE1C): 0 | drug sensitivity score (HOSE2C): 0 | drug sensitivity score (OVCAR4): 0 | drug sensitivity score (COV318): 0 | drug sensitivity score (OVCAR8): 0

CCOCc1nc2c(N)nc3ccccc3c2n1CC(C)(C)O [Resiquimod]
drug sensitivity score (Ovsaho): 0.3 | drug sensitivity score (JHOS2): 0.6 | drug sensitivity score (Kuramochi): 1.2 | drug sensitivity score (CAOV3): 0 | drug sensitivity score (OV90): 0 | drug sensitivity score (OVCAR5): 0.3 | drug sensitivity score (COV362): 0 | drug sensitivity score (HOSE1C): 0 | drug sensitivity score (HOSE2C): 0 | drug sensitivity score (OVCAR4): 0.3 | drug sensitivity score (COV318): 0 | drug sensitivity score (OVCAR8): 0

CN(C)Cc1ccc(S(=O)(=O)n2ccc(/C=C/C(=O)NO)c2)cc1 [Resminostat]
drug sensitivity score (Ovsaho): 3.6 | drug sensitivity score (JHOS2): 5.3 | drug sensitivity score (Kuramochi): 5.8 | drug sensitivity score (CAOV3): 8.2 | drug sensitivity score (OV90): 9.7 | drug sensitivity score (OVCAR5): 12.3 | drug sensitivity score (COV362): 2.9 | drug sensitivity score (HOSE1C): 19.3 | drug sensitivity score (HOSE2C): 12 | drug sensitivity score (OVCAR4): 3.2 | drug sensitivity score (COV318): 4.8 | drug sensitivity score (OVCAR8): 11.8

CN(C)C(=O)c1cc2cnc(Nc3ccc(N4CCNCC4)cn3)nc2n1C1CCCC1 [Ribociclib]
drug sensitivity score (Ovsaho): 0 | drug sensitivity score (JHOS2): 2.9 | drug sensitivity score (Kuramochi): 0 | drug sensitivity score (CAOV3): 0 | drug sensitivity score (OV90): 0.6 | drug sensitivity score (OVCAR5): 2.3 | drug sensitivity score (COV362): 0 | drug sensitivity score (HOSE1C): 0 | drug sensitivity score (HOSE2C): 0 | drug sensitivity score (OVCAR4): 0.6 | drug sensitivity score (COV318): 0.2 | drug sensitivity score (OVCAR8): 0

CO[C@H]1C[C@@H]2CC[C@@H](C)[C@@](O)(O2)C(=O)C(=O)N2CCCC[C@H]2C(=O)O[C@H]([C@H](C)C[C@@H]2CC[C@@H](OP(C)(C)=O)[C@H](OC)C2)CC(=O)[C@H](C)/C=C(\C)[C@@H](O)[C@@H](OC)C(=O)[C@H](C)C[C@H](C)/C=C/C=C/C=C/1C [Ridaforolimus]
drug sensitivity score (Ovsaho): 4.6 | drug sensitivity score (JHOS2): 4.3 | drug sensitivity score (Kuramochi): 3.2 | drug sensitivity score (CAOV3): 8.7 | drug sensitivity score (OV90): 10.3 | drug sensitivity score (OVCAR5): 4.6 | drug sensitivity score (COV362): 0 | drug sensitivity score (HOSE1C): 2.3 | drug sensitivity score (HOSE2C): 1 | drug sensitivity score (OVCAR4): 2.6 | drug sensitivity score (COV318): 0.6 | drug sensitivity score (OVCAR8): 6.8

COc1cc(OC)c(/C=C/S(=O)(=O)Cc2ccc(OC)c(NCC(=O)O)c2)c(OC)c1 [Rigosertib]
drug sensitivity score (Ovsaho): 18.9 | drug sensitivity score (JHOS2): 11.5 | drug sensitivity score (Kuramochi): 14.9 | drug sensitivity score (CAOV3): 23.4 | drug sensitivity score (OV90): 20.2 | drug sensitivity score (OVCAR5): 17 | drug sensitivity score (COV362): 9.8 | drug sensitivity score (HOSE1C): 28.4 | drug sensitivity score (HOSE2C): 20.8 | drug sensitivity score (OVCAR4): 10.9 | drug sensitivity score (COV318): 11.7 | drug sensitivity score (OVCAR8): 25.4

C[C@H]1CNCCCN1S(=O)(=O)c1cccc2cncc(F)c12 [Ripasudil]
drug sensitivity score (Ovsaho): 0 | drug sensitivity score (JHOS2): 0 | drug sensitivity score (Kuramochi): 0 | drug sensitivity score (CAOV3): 0 | drug sensitivity score (OV90): 0 | drug sensitivity score (OVCAR5): 0 | drug sensitivity score (COV362): 0 | drug sensitivity score (HOSE1C): 2 | drug sensitivity score (HOSE2C): 0.6 | drug sensitivity score (OVCAR4): 0 | drug sensitivity score (COV318): 0 | drug sensitivity score (OVCAR8): 0

C=CC(=O)Nc1cccc(Nc2nc(Nc3ccc(N4CCN(C(C)=O)CC4)cc3OC)ncc2C(F)(F)F)c1 [Rociletinib]
drug sensitivity score (Ovsaho): 6.9 | drug sensitivity score (JHOS2): 2.9 | drug sensitivity score (Kuramochi): 3.6 | drug sensitivity score (CAOV3): 7.9 | drug sensitivity score (OV90): 5.5 | drug sensitivity score (OVCAR5): 7.5 | drug sensitivity score (COV362): 3.3 | drug sensitivity score (HOSE1C): 4.2 | drug sensitivity score (HOSE2C): 6.8 | drug sensitivity score (OVCAR4): 3 | drug sensitivity score (COV318): 2.6 | drug sensitivity score (OVCAR8): 5.8

O=C(CCCCCCNC(=O)c1cnc(N(c2ccccc2)c2ccccc2)nc1)NO [Rocilinostat]
drug sensitivity score (Ovsaho): 1.9 | drug sensitivity score (JHOS2): 1.6 | drug sensitivity score (Kuramochi): 3.3 | drug sensitivity score (CAOV3): 5.2 | drug sensitivity score (OV90): 6 | drug sensitivity score (OVCAR5): 6.9 | drug sensitivity score (COV362): 0 | drug sensitivity score (HOSE1C): 9.3 | drug sensitivity score (HOSE2C): 5.7 | drug sensitivity score (OVCAR4): 1.4 | drug sensitivity score (COV318): 2.7 | drug sensitivity score (OVCAR8): 7.1

C/C=C1\NC(=O)[C@H]2CSSCC/C=C/[C@H](CC(=O)N[C@H](C(C)C)C(=O)N2)OC(=O)[C@H](C(C)C)NC1=O [Romidepsin]
drug sensitivity score (Ovsaho): 25.9 | drug sensitivity score (JHOS2): 22.7 | drug sensitivity score (Kuramochi): 27.8 | drug sensitivity score (CAOV3): 28.2 | drug sensitivity score (OV90): 29.8 | drug sensitivity score (OVCAR5): 33.3 | drug sensitivity score (COV362): 11.9 | drug sensitivity score (HOSE1C): 39.3 | drug sensitivity score (HOSE2C): 35.8 | drug sensitivity score (OVCAR4): 20.8 | drug sensitivity score (COV318): 12.3 | drug sensitivity score (OVCAR8): 28.1

Cc1nc(C(=O)NCC(=O)O)c(O)c2ccc(Oc3ccccc3)cc12 [Roxadustat]
drug sensitivity score (Ovsaho): 0 | drug sensitivity score (JHOS2): 0.1 | drug sensitivity score (Kuramochi): 0.4 | drug sensitivity score (CAOV3): 1.3 | drug sensitivity score (OV90): 0 | drug sensitivity score (OVCAR5): 0 | drug sensitivity score (COV362): 0 | drug sensitivity score (HOSE1C): 0 | drug sensitivity score (HOSE2C): 0 | drug sensitivity score (OVCAR4): 0.3 | drug sensitivity score (COV318): 0 | drug sensitivity score (OVCAR8): 0

CN(C)C[C@@H]1CCn2cc(c3ccccc32)C2=C(C(=O)NC2=O)c2cn(c3ccccc23)CCO1 [Ruboxistaurin]
drug sensitivity score (Ovsaho): 9.2 | drug sensitivity score (JHOS2): 8.8 | drug sensitivity score (Kuramochi): 7.2 | drug sensitivity score (CAOV3): 7 | drug sensitivity score (OV90): 6.4 | drug sensitivity score (OVCAR5): 5.6 | drug sensitivity score (COV362): 2.5 | drug sensitivity score (HOSE1C): 6.3 | drug sensitivity score (HOSE2C): 6.2 | drug sensitivity score (OVCAR4): 2.5 | drug sensitivity score (COV318): 7.7 | drug sensitivity score (OVCAR8): 6.6
